Measured values taken from patent US5563164A, “Phospholipase A2 inhibitors” (Eli Lilly and Company, priority 1995, dated 1996).

target: T1, Human Cytosolic PLA2 (Homo sapiens, UniProt P47712); assay: Inhibition of Cytosolic Phospholipase A2 (in vitro, [14C]PC/DG sonicated liposomes); assay type: biochemical; settings: 37° C., 15 minutes, pH 7.5, 1 mM calcium chloride
T1 sequence (P47712 1-749): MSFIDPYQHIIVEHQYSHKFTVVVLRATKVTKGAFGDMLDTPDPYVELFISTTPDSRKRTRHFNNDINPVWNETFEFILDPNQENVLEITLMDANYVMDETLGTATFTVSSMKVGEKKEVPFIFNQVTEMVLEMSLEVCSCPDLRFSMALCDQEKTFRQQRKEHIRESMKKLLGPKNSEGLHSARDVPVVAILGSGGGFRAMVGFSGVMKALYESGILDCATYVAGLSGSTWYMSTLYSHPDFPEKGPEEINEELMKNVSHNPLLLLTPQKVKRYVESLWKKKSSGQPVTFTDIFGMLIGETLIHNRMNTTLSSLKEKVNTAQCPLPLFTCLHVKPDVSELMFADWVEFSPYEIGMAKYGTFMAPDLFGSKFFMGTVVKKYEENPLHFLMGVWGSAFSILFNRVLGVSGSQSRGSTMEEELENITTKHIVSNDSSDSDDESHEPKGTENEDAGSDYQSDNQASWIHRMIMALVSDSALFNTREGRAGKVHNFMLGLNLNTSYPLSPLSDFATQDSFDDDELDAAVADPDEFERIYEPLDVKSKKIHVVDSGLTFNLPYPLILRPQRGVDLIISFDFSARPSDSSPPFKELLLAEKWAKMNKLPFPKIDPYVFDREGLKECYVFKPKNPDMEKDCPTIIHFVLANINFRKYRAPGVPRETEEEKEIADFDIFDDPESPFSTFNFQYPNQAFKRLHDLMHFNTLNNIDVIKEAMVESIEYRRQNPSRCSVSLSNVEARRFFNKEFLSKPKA
Procedure: The biological activity of the compounds of Formula I was evaluated employing an in vitro assay measuring the ability of these compounds to inhibit the activity of cytosolic phospholipase A2. The assay was performed essentially as described in R. Kramer, et al., Journal of Biological Chemistry, 266:5268-5272 (1991) with the exception that varying amounts of the compound of Formula I were added to the reaction mixture.
The substrate, sonicated liposomes containing 1-palmitoyl-2[^14 C ]arachidonoyl-sn-glycero-3-phosphocholine ([^14 C]PC, 55 mCi/mmole from NEN Research Products) and sn-1,2-dioleoylglycerol (DG, Avanti Polar Lipids, Birmingham, Ala.) at a molar ratio of 2:1, was prepared as follows. [^14 C]PC (20 nmol, 1×10^6 dpm, 50 μg/ml in toluene/ethanol) and DG (10 nmol, 100 μg/ml in chloroform) were dried under nitrogen. The lipids were dispersed in 1 ml of 150 mM sodium chloride, 50 mM HEPES, pH 7.5 (assay buffer) by sonication at 4° C. with a Microson™ probe-sonicator (Heat Systems Ultrasonics) for 4×15 seconds, with 45 second intervals. Bovine serum albumin (essentially fatty acid free, from a 100 mg/ml stock in water, Sigma) was added to a final concentration of 4 mg/ml. Samples to be assayed for cPLA2 activity were incubated with 50 μl liposomes (0.5 nmol [^14 C]PC, 50,000 dpm containing 0.25 nmol of DG) and varying amounts of the compound of Formula I, in a total volume of 0.2 ml of assay buffer containing 1 mM calcium chloride and 1 mM 2-mercaptoethanol. Incubations were carried out at 37° C. for 15 minutes and terminated by adding 2 ml of Dole's reagent (2-propanol/heptane/0.5 M sulfuric acid, 40:10:1 containing 10 μg/ml of stearic acid).
After mixing, 1.2 ml of heptane and 1 ml of water were added. The mixtures were briefly vortexed and the upper phase transferred to tubes containing 2 ml of heptane and 150 mg of Bio-Sil (Bio-Rad Laboratories) activated at 130° C. before use. The tubes were thoroughly vortexed and centrifuged (1000×g for 5 minutes). The supernatants were decanted into scintillation vials. After addition of 10 ml of a liquid scintillation cocktail (Ready Protein®, Beckman) radioactivity was counted using a Beckman liquid scintillation counter Model LS 7000. High radioactive counts correlate with enzymatic activity.
The first column provides the example number of the test inhibitor. The second column provides the concentration of the test compound (in micromolar quantities) which inhibits fifty percent of the activity of cytosolic phospholipase A2.

`CCc1cc(-c2ccc(F)cc2)c(O)cc1OCCCOc1ccccc1CCC(=O)NS(C)(=O)=O` [Example 2, N-Methanesulfonyl-3-(2-(3-(2-ethyl-4-(4-fluorophenyl)-5-hydroxyphenoxy)propoxy)phenyl)propionamide] and `CCc1cc(-c2ccc(F)cc2)c(O)cc1OCCCOc1ccccc1CCC(=O)NS(=O)(=O)c1ccccc1` [Example 3, N-Phenylsulfonyl-3-(2-(3-(2-ethyl-4-(4-fluorophenyl)-5-hydroxyphenoxy)propoxy)phenyl)propionamide] are within 1.5-fold of each other in IC50: 18 µM for the first, 17 µM for the second.

`CCc1cc(-c2ccccc2)c(O)cc1OCCCCCC(C)(C)c1nn[nH]n1` [Example 4, 2-phenyl-4-ethyl-5-[[6-(2H-tetrazol-5-yl)-6-methylheptyl]oxy]phenol] and `CCc1cc(CC)c(OCCCCCC(C)(C)c2nn[nH]n2)cc1O` [Example 11, 2,4-diethyl-5-[[6-methyl-6-(1H-tetrazol-5yl)heptyl]oxy]phenol] are within 1.5-fold of each other in IC50: 39.4 µM for the first, 54 µM for the second.

`CCCc1c(OCCCOc2cc(O)c(-c3ccccc3)cc2CC)cccc1OC(C)C(=O)O` (centres unmarked) [Example 5, 2-[3-[3-[(5-Ethyl-2-hydroxy[1, 1'-biphenyl]-4-yl)oxy]propoxy]-2-propylphenoxy]propanoic acid] and `CCCc1c(OCCCOc2cc(O)c(-c3ccc(F)cc3)cc2CC)cccc1Oc1ccccc1C(=O)O` [Example 8, 2-[2-Propyl-3-[3-[2-ethyl-4-(4-fluorophenyl)-5-hydroxyphenoxy]propoxy]phenoxy]benzoic acid] are the same in IC50: 12 µM for the first, 12 µM for the second.

`CCCc1c(OCCCOc2cc(O)c(-c3ccc(F)cc3)cc2CC)ccc2c1OC(C(=O)O)CC2` (centres unmarked) [Example 6, 8-Propyl-7-[3-[4-(4-fluorophenyl)-2-ethyl-5-hydroxyphenoxy]propoxy]-3,4-dihydro-2H-1-benzopyran-2-carboxylic acid] and `CCCc1c(OCCCOc2cc(O)c(C(C)=O)cc2CC)ccc2c1OC(C(=O)O)CC2` (centres unmarked) [Example 13, 7-[3-(4-acetyl-2-ethyl-5-hydroxyphenoxy)propoxy]-3,4-dihydro-8-propyl-2H-1-benzopyran-2-carboxylic acid] are within 1.5-fold of each other in IC50: 9 µM for the first, 13 µM for the second.

First: CCc1cc(-c2ccc(F)cc2)c(O)cc1OCCCCOc1ccccc1CCC(=O)O [Example 9, 3-(2-(4-(2-Ethyl-4-(4-fluorophenyl)-5-hydroxyphenoxy)-5-butyloxy)phenyl)propionic acid]
Second: CCCc1c(OCCCOc2cc(O)c(C(C)=O)cc2CC)cccc1OC(CC)C(=O)O (centres unmarked) [Example 14, 2-[3-[3-(4-acetyl-2-ethyl-5-hydroxyphenoxy)-propoxy)-2-propylphenoxy]butanoic acid]
The IC50 of the first is 2.5-fold higher: 35 µM for the first, 14 µM for the second.

First: CCc1cc(C(C)=O)c(O)cc1OCCCCCC(C)(C)c1nn[nH]n1 [Example 10, 1-[5-ethyl-2-hydroxy-4-[[6-methyl-6-(1H-tetrazol-5-yl)heptyl]oxy]phenyl]ethanone]
Second: CCCc1c(OCCCOc2cc(O)c(OCC)cc2CC)ccc2c1OC(C(=O)O)CC2 (centres unmarked) [Example 12, 3,4-dihydro-8-propyl-7-[3-(2-ethyl-5-hydroxy-4-ethoxy-phenoxy)propoxy]-2H-1-benzopyran-2-carboxylic acid]
The IC50 of the first is 1.5-fold higher: 43 µM for the first, 28 µM for the second.

system: neuronal cells; assay: not given; settings: Neurobiology of Aging 1992; cited from earlier work

In the case of “β-amyloid peptide: 4500 Dalton protein, major constituent of amyloid plaque cores; in its longest forms 42 or 43 amino acid residues”, the “direct toxicity (other research groups)” value is given as “unable to consistently demonstrate direct toxicity”.

same assay, conditions: in vitro and in vivo; B. A. Yankner 1989; cited from earlier work

For “β-amyloid peptide: 4500 Dalton protein, major constituent of amyloid plaque cores; in its longest forms 42 or 43 amino acid residues”, the neurotoxicity is listed as “neurotoxic in vitro and in vivo”.
